{
  "source": "patent US10420758B2",
  "about": "“Indolinyl-sulfonamide inhibitors of tankyrase and methods of use thereof” (The Board of Regents of the University of Texas System, priority 2015, dated 2019)",
  "test_in_all_cases": "PARP profiling, parsylation of immobilized histone",
  "type_in_all_cases": "biochemical",
  "key": {"PARP12": {"biological_target": "T1, PARP12 (Homo sapiens, UniProt Q9H0J9)", "T1 sequence (Q9H0J9 1-701)": "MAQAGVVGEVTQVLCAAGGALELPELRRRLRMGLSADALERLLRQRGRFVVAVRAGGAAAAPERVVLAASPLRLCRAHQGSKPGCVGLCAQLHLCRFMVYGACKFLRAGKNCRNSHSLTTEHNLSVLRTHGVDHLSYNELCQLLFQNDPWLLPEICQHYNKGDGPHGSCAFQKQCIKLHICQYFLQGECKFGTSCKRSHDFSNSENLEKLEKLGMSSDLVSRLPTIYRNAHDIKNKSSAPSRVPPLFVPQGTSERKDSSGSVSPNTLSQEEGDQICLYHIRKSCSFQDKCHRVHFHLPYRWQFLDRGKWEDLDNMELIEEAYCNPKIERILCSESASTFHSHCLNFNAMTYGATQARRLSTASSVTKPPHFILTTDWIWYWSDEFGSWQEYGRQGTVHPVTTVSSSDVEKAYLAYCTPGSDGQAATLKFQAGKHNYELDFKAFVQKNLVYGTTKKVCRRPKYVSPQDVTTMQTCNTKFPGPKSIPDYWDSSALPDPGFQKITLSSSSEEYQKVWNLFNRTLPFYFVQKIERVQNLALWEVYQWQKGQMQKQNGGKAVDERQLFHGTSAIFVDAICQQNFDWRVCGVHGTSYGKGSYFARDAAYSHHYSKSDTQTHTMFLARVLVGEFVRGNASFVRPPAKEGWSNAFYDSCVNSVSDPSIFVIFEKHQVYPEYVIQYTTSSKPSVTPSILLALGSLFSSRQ", "experimental": "(§1) Performed by BPS Bioscience Inc., San Diego by following the BPS PARP or TNKS assay kit protocols. The enzymatic reactions were conducted in duplicate at room temperature for 1 hr in a 96 well plate coated with histone substrate. […] of reaction buffer (Tris.HCl, pH 8.0) contains NAD^+, biotinylated NAD^+, activated DNA, recombinant PARP enzyme and 10 μM of the test compound. […] After enzymatic reactions, 50 μL of Streptavidin-horseradish peroxidase was added to each well and the plate was incubated at room temperature for an additional 30 min. 100 μL of developer reagents were added to wells and luminescence was measured using a BioTek Synergy™ 2 microplate reader."}, "PARP8": {"biological_target": "T2, PARP8 (Homo sapiens, UniProt Q8N3A8)", "T2 sequence (Q8N3A8 1-854)": "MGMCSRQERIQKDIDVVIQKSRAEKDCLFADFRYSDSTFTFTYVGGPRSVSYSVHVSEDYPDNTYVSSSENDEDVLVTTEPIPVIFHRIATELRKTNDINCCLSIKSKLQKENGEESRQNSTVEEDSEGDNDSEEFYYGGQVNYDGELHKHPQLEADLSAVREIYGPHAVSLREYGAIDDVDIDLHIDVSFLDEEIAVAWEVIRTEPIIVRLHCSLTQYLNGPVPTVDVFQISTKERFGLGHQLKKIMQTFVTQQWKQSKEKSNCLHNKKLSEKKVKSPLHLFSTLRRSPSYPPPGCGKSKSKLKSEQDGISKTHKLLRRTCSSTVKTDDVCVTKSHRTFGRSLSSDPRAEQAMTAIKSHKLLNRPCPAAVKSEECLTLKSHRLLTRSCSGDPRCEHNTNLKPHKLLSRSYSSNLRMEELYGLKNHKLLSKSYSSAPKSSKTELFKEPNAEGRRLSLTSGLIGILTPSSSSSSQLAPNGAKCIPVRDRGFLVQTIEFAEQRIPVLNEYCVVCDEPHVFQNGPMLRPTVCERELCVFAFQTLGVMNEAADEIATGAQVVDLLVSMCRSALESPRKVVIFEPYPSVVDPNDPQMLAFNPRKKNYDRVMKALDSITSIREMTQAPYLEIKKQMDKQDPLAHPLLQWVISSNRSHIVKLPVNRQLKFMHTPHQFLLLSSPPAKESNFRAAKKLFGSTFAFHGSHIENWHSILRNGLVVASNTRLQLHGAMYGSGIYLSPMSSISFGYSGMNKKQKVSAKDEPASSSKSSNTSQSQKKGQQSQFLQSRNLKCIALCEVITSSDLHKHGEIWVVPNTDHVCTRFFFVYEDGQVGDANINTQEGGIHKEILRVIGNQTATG", "experimental": "as §1"}, "PARP10": {"biological_target": "T3, PARP10 (Homo sapiens, UniProt Q53GL7)", "T3 sequence (Q53GL7 1-1025)": "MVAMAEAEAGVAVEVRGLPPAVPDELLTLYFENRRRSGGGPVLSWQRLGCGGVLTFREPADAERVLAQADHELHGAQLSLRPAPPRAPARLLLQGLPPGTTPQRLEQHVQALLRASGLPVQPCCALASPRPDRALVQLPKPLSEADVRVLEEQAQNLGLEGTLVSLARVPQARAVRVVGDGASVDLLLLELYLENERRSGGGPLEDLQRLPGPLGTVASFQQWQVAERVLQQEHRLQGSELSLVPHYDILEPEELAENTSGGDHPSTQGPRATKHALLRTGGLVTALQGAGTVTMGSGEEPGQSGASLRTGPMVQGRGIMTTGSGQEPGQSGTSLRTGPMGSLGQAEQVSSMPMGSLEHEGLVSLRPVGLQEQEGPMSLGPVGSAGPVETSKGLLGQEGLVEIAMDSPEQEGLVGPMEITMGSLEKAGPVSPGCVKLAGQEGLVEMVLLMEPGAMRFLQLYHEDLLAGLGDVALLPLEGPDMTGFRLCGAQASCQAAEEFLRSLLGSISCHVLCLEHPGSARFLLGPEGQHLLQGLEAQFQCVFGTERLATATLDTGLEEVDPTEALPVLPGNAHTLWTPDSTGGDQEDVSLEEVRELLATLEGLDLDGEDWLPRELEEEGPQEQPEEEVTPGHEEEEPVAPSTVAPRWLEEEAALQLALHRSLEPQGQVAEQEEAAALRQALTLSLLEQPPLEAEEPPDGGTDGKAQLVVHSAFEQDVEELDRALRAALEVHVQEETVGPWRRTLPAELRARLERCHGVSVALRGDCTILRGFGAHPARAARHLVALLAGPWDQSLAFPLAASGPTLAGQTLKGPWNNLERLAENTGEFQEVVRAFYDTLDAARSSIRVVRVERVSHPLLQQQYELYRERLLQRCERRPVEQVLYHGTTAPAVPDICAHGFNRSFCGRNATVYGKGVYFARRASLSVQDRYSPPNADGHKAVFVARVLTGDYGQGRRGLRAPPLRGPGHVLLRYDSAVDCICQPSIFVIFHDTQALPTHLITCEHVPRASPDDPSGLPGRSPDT", "experimental": "as §1"}},
  "data": [
    {"molecule": "O=C(Nc1cccc2cccnc12)c1ccc(N2C(=O)[C@@H]3[C@H](C2=O)[C@@H]2C=C[C@H]3C2)cc1", "note": "[IWR-1]", "values": [
      {"measurement": "% inhibition", "setting": "PARP12; IWR compounds 10 μM", "value": 11, "unit": "%"},
      {"measurement": "% inhibition", "setting": "PARP8; IWR compounds 10 μM", "value": 1, "unit": "%"},
      {"measurement": "% inhibition", "setting": "PARP10; IWR compounds 10 μM", "value": 18, "unit": "%"}
    ]},
    {"molecule": "CCN(C(=O)C1CCN(S(=O)(=O)c2cc3c(cc2Br)CCN3C(C)=O)CC1)c1cccc(C)c1", "note": "[IWR-8]", "values": [
      {"measurement": "inhibition at 10 µM", "setting": "PARP12; IWR compounds 10 μM", "value": 14, "unit": "%"},
      {"measurement": "inhibition at 10 µM", "setting": "PARP8; IWR compounds 10 μM", "value": 0, "unit": "%"},
      {"measurement": "inhibition at 10 µM", "setting": "PARP10; IWR compounds 10 μM", "value": 9, "unit": "%"}
    ]},
    {"molecule": "O=C(c1cc(Cc2n[nH]c(=O)c3ccccc23)ccc1F)N1CCN(C(=O)C2CC2)CC1", "note": "[Olaparib]", "values": [
      {"measurement": "inhibition at 0.02 µM", "setting": "PARP12", "value": 84, "unit": "%"},
      {"measurement": "inhibition at 0.02 µM", "setting": "PARP8", "value": 96, "unit": "%"},
      {"measurement": "inhibition at 0.02 µM", "setting": "PARP10", "value": 99, "unit": "%"}
    ]}
  ]
}
